Among the data in ChEMBL document CHEMBL1148336, “3-Aminopyrazole inhibitors of CDK2/cyclin A as antitumor agents. 1. Lead finding” (J Med Chem, 2004) are IC50 values, retold here.

The target of experiment [1] is Cyclin-dependent kinase 2/cyclin A (Homo sapiens, UniProt P24941). Nature of the experiment: In vitro inhibitory concentration against cyclin-dependent kinase 2-cyclin A complex using ATP/P33gamma-ATP mix as radioligand. The class given is protein-complex assay.
In the next experiment the test system is A2780. In words: Antiproliferative activity against human A2780 cells. The class given is functional, cell-based.

`COc1ccc(C(=O)Nc2cc(C3CC3)[nH]n2)cc1` gave an IC50 in experiment [1] of 705 nM. Molecule `O=C(Nc1cc(C2CCC2)[nH]n1)c1ccc(Br)cc1` came in with an IC50 in experiment [1] of 90 nM. For `NC(=O)c1ccc(-c2ccc(CC(=O)Nc3cc(C4CC4)[nH]n3)cc2)cc1`, the IC50 in experiment [1] came to 4 nM; in the experiment with A2780, 1470 nM. In the case of `CCC(C)c1cc(NC(=O)c2ccc(Br)cc2)[nH]n1` (stereo not given), in experiment [1], the IC50 is over 10000 nM. Turning to `O=C(Cc1ccc(-c2ccc(C(=O)O)cc2)cc1)Nc1cc(C2CC2)[nH]n1`, the IC50 in experiment [1] is 11 nM; in the experiment on A2780, over 20000 nM. For `O=C(Nc1cc(-c2ccccc2)[nH]n1)c1ccc(Br)cc1`, the IC50 in experiment [1] is over 10000 nM. The same measure, in the same setting: to `CCCc1cc(NC(=O)c2ccc(Br)cc2)n[nH]1` belongs 650 nM.

Turning to `O=C(Cc1ccc(-c2cccc(F)c2)cc1)Nc1cc(C2CC2)[nH]n1`, the IC50 in experiment [1] came out at 4 nM; with A2780, 182 nM. For `Cc1cccc(-c2ccc(CC(=O)Nc3cc(C4CC4)[nH]n3)cc2)c1`, the IC50 turned out to be 9 nM in experiment [1] and 205 nM in the experiment on A2780.

Regarding `O=C(Cc1ccccc1)Nc1cc(C2CC2)[nH]n1`, the IC50 is 48 nM in experiment [1] and 1400 nM with A2780. Take `COc1cccc(CC(=O)Nc2cc(C3CC3)[nH]n2)c1`: the IC50 in the experiment with A2780 was over 20000 nM.

`Cc1cc(NC(=O)c2ccccc2)n[nH]1`: the IC50 in experiment [1] was found to be 1500 nM. Still for that read-out and setting: the value for `CCCC(=O)Nc1cc(C)[nH]n1` was over 10000 nM. On to `O=C(Nc1cc(C2CC2)[nH]n1)c1ccc(Br)cc1`, for which, in experiment [1], the IC50 was 34 nM. `O=C(Cc1ccc(-c2ccccc2)cc1)Nc1cc(C2CC2)[nH]n1`: inhibition in the experiment with A2780 was half-maximal at 111 nM (IC50). In experiment [1], `O=C(Nc1cc(C2CC2)[nH]n1)c1ccc(Cl)c(Cl)c1` gave an IC50 of 83 nM. Same read-out and setting: the value for `COc1ccccc1C(=O)Nc1cc(C2CC2)[nH]n1` was over 10000 nM. Molecule `O=C(Cc1ccc(OCCN2CCCC2)cc1)Nc1cc(C2CC2)[nH]n1` gave an IC50 in the experiment on A2780 of 6980 nM. As to `CC(C)(C)c1cc(NC(=O)c2ccc(Br)cc2)n[nH]1`, the IC50 in experiment [1] was over 10000 nM. With `NC(=O)c1ccc(CC(=O)Nc2cc(C3CC3)[nH]n2)cc1`, the values for the IC50 (in experiment [1]; in the experiment on A2780) were 74 nM and 2840 nM, respectively. Regarding `O=C(Nc1cc(C2CC2)[nH]n1)c1cccc(Cl)c1`, the IC50 in experiment [1] is 1000 nM. With `O=C(Cc1cccc2ccccc12)Nc1cc(C2CC2)[nH]n1`, the IC50 with A2780 came out at 900 nM. In experiment [1], `O=C(Nc1cc(C2CC2)[nH]n1)c1c(Cl)cccc1Cl` showed an IC50 of over 10000 nM.

The molecule `O=C(Nc1cc(C2CCCCC2)[nH]n1)c1ccc(Br)cc1` yielded an IC50 in experiment [1] of 1000 nM. `O=C(Nc1cc(C2CC2)[nH]n1)c1cccc(C(F)(F)F)c1`: the IC50 in experiment [1] came out at 500 nM. As for `O=C(Nc1cc(C2CCCC2)[nH]n1)c1ccc(Br)cc1`, in experiment [1], the IC50 was found to be 50 nM. The same measure, in the same setting: the value for `COc1cccc(C(=O)Nc2cc(C3CC3)n[nH]2)c1` was 600 nM; that for `O=C(Nc1cc(Cc2ccccc2)[nH]n1)c1ccc(Br)cc1` was over 10000 nM; that for `CC(C)c1cc(NC(=O)c2ccc(Br)cc2)n[nH]1` was 200 nM.
